{"source": "patent US11446287B2", "about": "“Compounds and methods for EP300 or CBP modulation and indications therefor” (Opna Immuno-Oncology SA, priority 2019, dated 2022)", "data": [{"biological_target": "T1, Recombinant human BRD4 containing dual bromodomains (BRD4-BD12 (1-477)) (Homo sapiens, UniProt O60885)", "T1 construct": "Recombinant human BRD4 containing dual bromodomains (BRD4-BD12 (1-477)); made in house; host or cells: E. coli BL21-CodonPlus (DE3), modified pET vector", "assay": "BRD4 Alphascreen binding assay", "method_in_brief": "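AlphaScreen proximity between Ni-chelate-bound BRD4-BD12 (1-477) and streptavidin-captured H4 K5/K8/K12/K16-acetyl peptide measured after 1 h room-temperature compound incubation and 30 min with 7.5 μg/ml beads. Buffer: 50 mM HEPES pH 7.5, 50 mM NaCl, 0.01% BSA, 0.01% Triton X-100; data plate-normalized and four-parameter fit for IC50.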", "units": {"IC50": "µM"}, "values": [{"smiles": "Cc1cc(C(=O)O)cc(OCC(F)F)c1-c1cn(C2CCOCC2)c2ncc(-c3c(C)noc3C)cc12", "note": "[P-0367, 3-(2,2-difluoroethoxy)-4-(5-(3,5-dimethylisoxazol-4-yl)-1-(tetrahydro-2H-pyran-4-yl)-1H-pyrrolo[2,3-b]pyridin-3-yl)-5-methylbenzoic acid]", "IC50": "1 to 8"}, {"smiles": "COc1nc(C(=O)O)ccc1-c1cn(C2CCOCC2)c2ncc(-c3c(C)noc3C)cc12", "note": "[P-0368, 5-(5-(3,5-dimethylisoxazol-4-yl)-1-(tetrahydro-2H-pyran-4-yl)-1H-pyrrolo[2,3-b]pyridin-3-yl)-6-methoxypicolinic acid]", "IC50": "8 to 1000"}, {"smiles": "Cc1noc(C)c1-c1cnc2c(c1)c(-c1c(F)cc(C(=O)O)cc1OC(C)C)cn2C(C1CC1)C1CC1", "note": "[P-0369, 4-(1-(dicyclopropylmethyl)-5-(3,5-dimethylisoxazol-4-yl)-1H-pyrrolo[2,3-b]pyridin-3-yl)-3-fluoro-5-isopropoxybenzoic acid]", "IC50": "1 to 8"}, {"smiles": "CCOc1cc(C(=O)O)cc(Cl)c1-c1cn(C(C2CC2)C2CC2)c2ncc(-c3c(C)noc3C)cc12", "note": "[P-0370, 3-chloro-4-(1-(dicyclopropylmethyl)-5-(3,5-dimethylisoxazol-4-yl)-1H-pyrrolo[2,3-b]pyridin-3-yl)-5-ethoxybenzoic acid]", "IC50": "1 to 8"}, {"smiles": "CCOc1cc(C(=O)O)cc(Cl)c1-c1cn(C2CCOCC2)c2ncc(-c3c(C)noc3C)cc12", "note": "[P-0371, 3-chloro-4-(5-(3,5-dimethylisoxazol-4-yl)-1-(tetrahydro-2H-pyran-4-yl)-1H-pyrrolo[2,3-b]pyridin-3-yl)-5-ethoxybenzoic acid]", "IC50": "1 to 8"}, {"smiles": "Cc1noc(C)c1-c1cnc2c(c1)c(-c1c(Cl)cc(C(=O)O)cc1OC(C)C)cn2C1CCOCC1", "note": "[P-0372, 3-chloro-4-(5-(3,5-dimethylisoxazol-4-yl)-1-(tetrahydro-2H-pyran-4-yl)-1H-pyrrolo[2,3-b]pyridin-3-yl)-5-isopropoxybenzoic acid]", "IC50": "1 to 8"}, {"smiles": "CCOc1cc(C(=O)O)nc(OCC)c1-c1cn(C2CCOCC2)c2ncc(-c3c(C)noc3C)cc12", "note": "[P-0373, 5-(5-(3,5-dimethylisoxazol-4-yl)-1-(tetrahydro-2H-pyran-4-yl)-1H-pyrrolo[2,3-b]pyridin-3-yl)-4,6-diethoxypicolinic acid]", "IC50": "8 to 1000"}, {"smiles": "CCOc1cc(C(=O)O)c(F)c(OCC)c1-c1cn(C2CCOCC2)c2ncc(-c3c(C)noc3C)cc12", "note": "[P-0374, 4-(5-(3,5-dimethylisoxazol-4-yl)-1-(tetrahydro-2H-pyran-4-yl)-1H-pyrrolo[2,3-b]pyridin-3-yl)-3,5-diethoxy-2-fluorobenzoic acid]", "IC50": "8 to 1000"}, {"smiles": "CCOc1cc(C(=O)O)c(F)cc1-c1cn(C2CCOCC2)c2ncc(-c3c(C)noc3C)cc12", "note": "[P-0375, 4-(5-(3,5-dimethylisoxazol-4-yl)-1-(tetrahydro-2H-pyran-4-yl)-1H-pyrrolo[2,3-b]pyridin-3-yl)-5-ethoxy-2-fluorobenzoic acid]", "IC50": "8 to 1000"}, {"smiles": "CCOc1nc(C(=O)O)ccc1-c1cn(C2CCOCC2)c2ncc(-c3c(C)noc3C)cc12", "note": "[P-0376, 5-(5-(3,5-dimethylisoxazol-4-yl)-1-(tetrahydro-2H-pyran-4-yl)-1H-pyrrolo[2,3-b]pyridin-3-yl)-6-ethoxypicolinic acid]", "IC50": "8 to 1000"}, {"smiles": "CCOc1cc(C(=O)O)c(F)cc1-c1cn(-c2ccccc2F)c2ncc(-c3c(C)noc3C)cc12", "note": "[P-0377, 4-(5-(3,5-dimethylisoxazol-4-yl)-1-(2-fluorophenyl)-1H-pyrrolo[2,3-b]pyridin-3-yl)-5-ethoxy-2-fluorobenzoic acid]", "IC50": "1 to 8"}, {"smiles": "Cc1noc(C)c1-c1cnc2c(c1)c(-c1ccc(C(=O)O)cc1OC(F)(F)F)cn2C1CCC1", "note": "[P-0378, 4-(1-cyclobutyl-5-(3,5-dimethylisoxazol-4-yl)-1H-pyrrolo[2,3-b]pyridin-3-yl)-3-(trifluoromethoxy)benzoic acid]", "IC50": "0.0001 to 1"}, {"smiles": "Cc1noc(C)c1-c1cnc2c(c1)c(-c1ccc(C(=O)O)cc1OC1CC1)cn2C1CCOCC1", "note": "[P-0379, 3-cyclopropoxy-4-(5-(3,5-dimethylisoxazol-4-yl)-1-(tetrahydro-2H-pyran-4-yl)-1H-pyrrolo[2,3-b]pyridin-3-yl)benzoic acid]", "IC50": "8 to 1000"}, {"smiles": "Cc1noc(C)c1-c1cnc2c(c1)c(-c1c(Cl)cc(C(=O)O)cc1OC(F)(F)F)cn2C(C1CCC1)C1CCC1", "note": "[P-0380, 3-chloro-4-(1-(dicyclobutylmethyl)-5-(3,5-dimethylisoxazol-4-yl)-1H-pyrrolo[2,3-b]pyridin-3-yl)-5-(trifluoromethoxy)benzoic acid]", "IC50": "8 to 1000"}, {"smiles": "Cc1noc(C)c1-c1cnc2c(c1)c(-c1c(Cl)cc(C(=O)O)cc1OC1CC1)cn2C1CCOCC1", "note": "[P-0381, 3-chloro-5-cyclopropoxy-4-(5-(3,5-dimethylisoxazol-4-yl)-1-(tetrahydro-2H-pyran-4-yl)-1H-pyrrolo[2,3-b]pyridin-3-yl)benzoic acid]", "IC50": "1 to 8"}, {"smiles": "Cc1noc(C)c1-c1cnc2c(c1)c(-c1ccc(C(=O)O)cc1OC(F)(F)F)cn2C1CCCC1", "note": "[P-0382, 4-(1-cyclopentyl-5-(3,5-dimethylisoxazol-4-yl)-1H-pyrrolo[2,3-b]pyridin-3-yl)-3-(trifluoromethoxy)benzoic acid]", "IC50": "1 to 8"}, {"smiles": "Cc1noc(C)c1-c1cnc2c(c1)c(-c1ccc(C(=O)O)cc1OC(F)(F)F)cn2C1(C)CCOC1", "note": "(stereo not drawn) [P-0383, 4-(5-(3,5-dimethylisoxazol-4-yl)-1-(3-methyltetrahydrofuran-3-yl)-1H-pyrrolo[2,3-b]pyridin-3-yl)-3-(trifluoromethoxy)benzoic acid]", "IC50": "8 to 1000"}, {"smiles": "Cc1noc(C)c1-c1cnc2c(c1)c(-c1ccc(C(=O)O)cc1OC(F)(F)F)cn2-c1cnc(C2CC2)nc1", "note": "[P-0384, 4-(1-(2-cyclopropylpyrimidin-5-yl)-5-(3,5-dimethylisoxazol-4-yl)-1H-pyrrolo[2,3-b]pyridin-3-yl)-3-(trifluoromethoxy)benzoic acid]", "IC50": "1 to 8"}, {"smiles": "Cc1noc(C)c1-c1cnc2c(c1)c(-c1ccc(C(=O)O)cc1OC(F)(F)F)cn2C1(C)CCOCC1", "note": "[P-0385, 4-(5-(3,5-dimethylisoxazol-4-yl)-1-(4-methyltetrahydro-2H-pyran-4-yl)-1H-pyrrolo[2,3-b]pyridin-3-yl)-3-(trifluoromethoxy)benzoic acid]", "IC50": "8 to 1000"}, {"smiles": "Cc1noc(C)c1-c1cnc2c(c1)c(-c1c(Cl)cc(C(=O)O)cc1OC(F)(F)F)cn2-c1cnc(C2CC2)nc1", "note": "[P-0386, 3-chloro-4-(1-(2-cyclopropylpyrimidin-5-yl)-5-(3,5-dimethylisoxazol-4-yl)-1H-pyrrolo[2,3-b]pyridin-3-yl)-5-(trifluoromethoxy)benzoic acid]", "IC50": "1 to 8"}, {"smiles": "Cc1noc(C)c1-c1cnc2c(c1)c(-c1ccc(C(=O)O)cc1OCC(F)F)cn2-c1cnc(C2CC2)nc1", "note": "[P-0387, 4-(1-(2-cyclopropylpyrimidin-5-yl)-5-(3,5-dimethylisoxazol-4-yl)-1H-pyrrolo[2,3-b]pyridin-3-yl)-3-(2,2-difluoroethoxy)benzoic acid]", "IC50": "8 to 1000"}]}]}
